According to US20060111287A1, “Acetylated protein” (priority 2002, published 2006):
Entries after “also recorded” stand apart in the source; their conditions may differ. Like-named read-outs stand apart in the source and are kept apart here.

Columns and labels:
U937.12 cells [1] = assay: HMGB1 relocation from nucleus to vesicles in LPS-challenged U937.12 cells (immunofluorescence); assay type: cell-based
Protocol: (§1) Fibroblasts and HeLa cells were cultured in Dulbecco's modified Eagle's medium (DMEM) supplemented with 10% fetal bovine serum (FBS, from Gibco), 100 IU/ml of penicillin and 100 μg/ml streptomycin, in 5% CO2 humidified atmosphere. HeLa cells and 3134 mouse fibroblasts were transfected by calcium phosphate co-precipitation. To express fluorescent proteins, 3×10^5 cells were plated in 6 cm dishes and were transiently transfected with 8 μg of the appropriate plasmid. Cells were observed 36 hours after transfection. […] About 24 hours after transfection, 3134 fibroblasts were treated for 3 hours with 10 ng/ml trichostatin A (TSA, Sigma) before fixing and imaging. Subclone 12[−] of U937 promoyelocitic cells, kindly provided by M. Alfano and G. Poli (HSR, Milano), was grown in RPMI medium (Gibco) supplemented with 10% FCS, L-glutamine, 100 U/ml penicillin 100 μg/ml streptomycin, exposed for 3 days to 0.1 μM vitamin D3 (Roche) to promote CD14 expression, and stimulated with 100 ng/ml LPS (Sigma catalogue #L4391) or with 10 ng/ml TSA for 3 hours. For the experiments with kinase inhibitors, cells were exposed to 1 μM U0126, 10 μM SB203580 or 30 μM SP600125 (all from Calbiochem) at the same time as LPS, and lasting for 3 hours. Primary human monocytes, purified from peripheral blood (a kind gift from M. Iannacone, HSR), were maintained in RPMI medium supplemented as described above, and were activated with 100 ng/ml LPS.
Cell cultured in LabTek II chambers (Nalgene) were directly fixed in 3.7% paraformaldehyde (PFA) in PHEM buffer (36.8 g/l PIPES, 13 g/l HEPES, 7.6 g/l EGTA, 1.99 g/l MgSO4, buffered to pH 7.0 with KOH) for 10 minutes at room temperature. After fixation, cells were washed with PBS and incubated for 3 minutes at 4° C. with HEPES-based permeabilization buffer containing 300 mM sucrose and 0.2% Triton X-100. Fifteen minutes of incubation in blocking solution (BlS, 0.2% BSA in PBS) followed. Primary antibodies were then diluted in BIS to the suitable final concentration and incubation was prolonged for 1 hour at room temperature. After 3 rinses with BlS, cells were incubated with secondary antibodies in BIS for one hour, washed three times with BlS, and then incubated with PBS containing 0.5 μg/ml Hoechst 33342. The polyclonal rabbit anti-HMGB1 was purchased from BD PharMingen (Torrey Pines, Calif.), and used at 1:1600 dilution. Goat polyclonal antibodies against rabbit IgG (H+L) conjugated to Alexa Fluor 594 (working dilution 1:1000) were purchased from Molecular Probes (Eugene, Oreg., USA).
The secretion of TNF-α, IL-1, IL-8, and PGE2 by LPS-stimulated monocytes can be blocked by inhibiting ERK phosphorylation (Scherle et al., 1998). […] U937.12 cells were exposed to 200 ng/ml LPS in the presence of 1 μM U0126 (a specific inhibitor of ERK phosphorylation), 30 μM SP600125 (a specific inhibitor of Jnk kinases) or 10 μM SB203580 (a specific inhibitor of the p38 kinases). Control cultures were not exposed to LPS, or exposed to LPS but no inhibitors.

human monocytes = assay: HMGB1 translocation to cytoplasmic vesicles in LPS-activated primary monocytes; assay type: cell-based; settings: cycloheximide; time scale about 16-20 hours
Protocol: as §1, with “Primary human monocytes, purified from peripheral blood (a kind gift from M. Iannacone, HSR), were maintained in RPMI medium supplemented as described above, and were activated with 100 ng/ml LPS.” left out

3T3 cells = assay: HMGB1 acetylation pattern by 2D gel electrophoresis and anti-HMGB1 blot after deacetylase inhibitors; assay type: cell-based, mouse; settings: for hyperacetylation of HMGB1: cell lines with low complexity of HMGB1 acetylation (3T3 mouse fibroblasts, HeLa cells, HEK cells)
Protocol: (C) Most cell lines contain 2 isoforms of HMGB1, and the protein can be hyperacetylated with TSA treatment. 3T3 cells were incubated for 6 hours in DMEM, or DMEM supplemented with 10 ng/ml TSA, then collected and lysed.
About 50 μg of purified HMGB1 or about 250 μg of total cellular protein were added to 350 μl of rehydration buffer (RB), containing 8 M urea, 2% CHAPS, 20 mM dithioerythritol (DTE), 0.8% IPG buffer (carrier ampholytes, pH 3-10 non-linear or pH 4-7 linear). Samples were applied on 18 cm polyacrylamide gel strips (pH range: 3-10 NL, or pH 4-7 L). Isoelectrophocusing (IEF) was performed in IPGphor (Pharmacia Biotech). IEF was stopped at 75000-90000 VoltHours. Second dimension runs were performed using a Protean II apparatus (Bio-Rad). After IEF, strips were soaked first in equilibration buffer (EB: 6 M urea, 3% SDS, 375 mM Tris pH 8.6, 30% glycerol, 2% DTE), then in EB containing 3% iodoacetamide (LAA) and traces of bromophenol blue (BBP). Strips were then applied onto 10%-12% polyacrylamide gels. Gels were run at 90 V for about 16 hours, and were then either silver stained or transferred onto nitrocellulose membranes (ECL, Amersham) in 25 mM Tris pH 7.5, 0.192 M glycine, 20% methanol.

3134 mouse fibroblasts = assay: HMGB1-GFP relocation to the cytoplasm in fibroblasts after TSA; assay type: cell-based; settings: 10 ng/ml TSA for 3 hours
Protocol: (§2) Fibroblasts and HeLa cells were cultured in Dulbecco's modified Eagle's medium (DMEM) supplemented with 10% fetal bovine serum (FBS, from Gibco), 100 IU/ml of penicillin and 100 μg/ml streptomycin, in 5% CO2 humidified atmosphere. HeLa cells and 3134 mouse fibroblasts were transfected by calcium phosphate co-precipitation. To express fluorescent proteins, 3×10^5 cells were plated in 6 cm dishes and were transiently transfected with 8 μg of the appropriate plasmid. Cells were observed 36 hours after transfection. The average amount of HMGB1-GFP in the cell population was between 1 and 3% of HMGB1 (as measured by immunoblotting with anti-HMGB1 antibodies). About 24 hours after transfection, 3134 fibroblasts were treated for 3 hours with 10 ng/ml trichostatin A (TSA, Sigma) before fixing and imaging. Subclone 12[−] of U937 promoyelocitic cells, kindly provided by M. Alfano and G. Poli (HSR, Milano), was grown in RPMI medium (Gibco) supplemented with 10% FCS, L-glutamine, 100 U/ml penicillin 100 μg/ml streptomycin, exposed for 3 days to 0.1 μM vitamin D3 (Roche) to promote CD14 expression, and stimulated with 100 ng/ml LPS (Sigma catalogue #L4391) or with 10 ng/ml TSA for 3 hours. For the experiments with kinase inhibitors, cells were exposed to 1 μM U0126, 10 μM SB203580 or 30 μM SP600125 (all from Calbiochem) at the same time as LPS, and lasting for 3 hours. […]

U937.12 cells [2] = assay: HMGB1 relocation in U937.12 cells treated with TSA without LPS (immunofluorescence); assay type: cell-based; settings: 10 ng/ml TSA for 3 hours, no LPS
Protocol: as §2

[3] = test system: HMGB1 transfer between human and mouse nuclei; assay: Heterokaryon assay: HMGB1 transfer from human to mouse nuclei; assay type: cell-based; settings: for HMGB1 transfer between human and mouse nuclei in heterokaryons: 150 nM leptomycin B, 4 hours at 37° C. with cycloheximide
Text: (A) Heterokaryons were formed by fusing HMGB1-expressing HeLa cells (human) and Hmgb1−/− mouse embryonic fibroblasts. Human cytokeratin and HMGB1 were stained red and green, respectively, with specific antibodies; nuclei were stained blue with DAPI (or Hoechst). Cells with human cytokeratin staining and two nuclei, one of which with bright DAPI-positive heterochromatic spots characteristic of mouse cells, were considered heterokaryons.
Heterokaryons were produced and scored as in panel A; 150 heterokaryons were evaluated for HMGB1 transfer into recipient mouse nuclei for each of the 2 classes (leptomycin and control). The 50% level is equivalent to complete equilibration.
HeLa cells were plated on glass coverslips in a 6-well dish (100 000 cells/dish). After 16 hours, 200 000 Hmgb1−/− mouse fibroblasts were plated on the same coverslips. Following a 3-hour incubation in the presence of 100 μg/ml cycloheximide, the cells were washed with PBS and treated with 100 μl of prewarmed 50% PEG-6000 in PBS for 1 min. After 3 washes with PBS, the cells were incubated with DMEM containing 100 μg/ml cycloheximide for 4 hours, and then fixed with 4% paraformaldehyde. Immunofluorescence was performed using anti-human cytokeratin (Santa Cruz) and anti-HMGB1 antibodies, and chromatin was visualized by DAPI staining. When indicated, 150 nM leptomycin B (a kind gift of Barbara Wolff, Novartis, Vienna) was added to the medium together with cycloheximide.

CRM1 exportin = CRM1 exportin (Homo sapiens, UniProt O14980); assay: Pull down assay with labeled CRM1; settings: 0.4 μM (400 nM) leptomycin B in the binding buffer
Chain of CRM1 exportin (O14980 whole entry): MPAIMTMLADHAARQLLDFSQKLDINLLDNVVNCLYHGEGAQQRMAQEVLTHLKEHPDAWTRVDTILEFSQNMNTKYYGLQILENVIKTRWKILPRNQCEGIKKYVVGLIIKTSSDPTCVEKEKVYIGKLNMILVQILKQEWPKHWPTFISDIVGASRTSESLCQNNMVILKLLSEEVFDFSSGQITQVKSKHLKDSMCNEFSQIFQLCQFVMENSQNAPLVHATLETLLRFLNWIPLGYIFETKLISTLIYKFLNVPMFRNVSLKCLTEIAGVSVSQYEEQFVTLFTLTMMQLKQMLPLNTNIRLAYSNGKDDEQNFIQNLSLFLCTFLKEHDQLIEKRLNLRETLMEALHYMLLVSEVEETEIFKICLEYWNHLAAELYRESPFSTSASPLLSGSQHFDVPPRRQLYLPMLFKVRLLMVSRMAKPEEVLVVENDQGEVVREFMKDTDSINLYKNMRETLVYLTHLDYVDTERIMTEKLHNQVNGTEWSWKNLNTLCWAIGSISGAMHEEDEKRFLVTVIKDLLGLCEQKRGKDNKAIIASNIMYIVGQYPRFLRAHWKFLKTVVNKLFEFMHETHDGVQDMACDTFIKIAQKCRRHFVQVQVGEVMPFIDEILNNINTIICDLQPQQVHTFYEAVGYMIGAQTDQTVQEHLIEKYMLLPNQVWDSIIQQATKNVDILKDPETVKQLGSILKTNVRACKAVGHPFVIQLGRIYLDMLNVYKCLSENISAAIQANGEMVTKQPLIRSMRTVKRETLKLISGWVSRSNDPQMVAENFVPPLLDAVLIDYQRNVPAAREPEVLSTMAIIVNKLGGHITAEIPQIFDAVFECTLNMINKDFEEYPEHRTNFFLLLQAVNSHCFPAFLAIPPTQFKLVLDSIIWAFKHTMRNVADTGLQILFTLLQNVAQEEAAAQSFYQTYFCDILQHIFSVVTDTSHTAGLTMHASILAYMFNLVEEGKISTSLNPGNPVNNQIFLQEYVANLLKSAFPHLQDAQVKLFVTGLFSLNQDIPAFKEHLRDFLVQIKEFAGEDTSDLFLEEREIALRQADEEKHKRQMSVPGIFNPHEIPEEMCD
Text: Labeled CRM1 protein was mixed with beads bearing GST-NS2 immobilized onto Glutathione Sepharose or BSA, tailless HMGB1 (boxA+B) or individual boxes covalently linked to Sepharose. Aliquots representing the input material (In), the fourth wash (W4), the material remaining bound to beads after 5 washes (bound, B), and the unbound material (output, O) were electrophoresed and autoradiographed.
CRM1 protein was in vitro transcribed-translated with the TnT Coupled Reticulocyte Lysate System (Promega) following the manifacturer's protocol, using pSGCRM1 plasmid as template. Seven μl of freshly made [^35S]-Met labeled CRM1 were incubated in 15 μl RAN Buffer (50 mM Tris-HCl pH 7.5, 200 mM NaCl, 2 mM MgCl2, 10% glycerol), 5 μl of 6×CRM1 buffer (20 mM HEPES-KOH pH 7.5, 80 mM CH3COOK, 4 mM Mg (CH3COO)2, 250 mM sucrose, 2.5 mM DTT), 1 mg/ml BSA, 400 nM Leptomycin B where indicated, and approximately 10 μl of beads bearing immobilized GST-NS2, BSA, recombinant tailless HMGB1 (HMGB1ΔC, Muller et al., 2001b), boxA, or boxB. GST-NS2 was coupled to Gluthatione Sepharose (Amersham), the other proteins were covalently cross-linked to Activated Sepharose-CH (Amersham). The incubation was for one hour at 4° C. on a rotating wheel. The beads were pelleted by centrifugation, supernatants were dried in Savant. […]

## N#CC(=C(/N)Sc1ccccc1N)/C(C#N)=C(\N)Sc1ccccc1N [U0126]
U937.12 cells [1]
  HMGB1 relocation to vesicles after LPS: blocks it completely; also recorded: inhibition of HMGB1 translocation; also recorded: almost completely blocked
  HMGB1 translocation after LPS stimulation after removal of the inhibitor: restored

## C[C@@H]1C[C@@H]([C@H](O)CC2CC(=O)NC(=O)C2)C(=O)[C@@H](C)C1 [cycloheximide]
Human monocytes
  HMGB1 translocation to cytoplasmic vesicles after LPS: not inhibited
U937.12 cells [1]; 10 μM cycloheximide starting 20 minutes prior to LPS addition
  HMGB1 translocation after LPS: does not block HMGB1 translocation
U937.12 cells [1]; 10 μg/ml cycloheximide
  HMGB1 translocation to vesicles when LPS is added: still translocate HMGB1 to vesicles

## CCCC(=O)[O-].[Na+] [sodium butyrate]
3T3 cells
  hyperacetylation of HMGB1: hyperacetylation could be obtained

## CC(/C=C/C(=O)NO)=C\[C@@H](C)C(=O)c1ccc(N(C)C)cc1 [TSA, trichostatin A]
3T3 cells; 3T3 cells, 10 ng/ml TSA, 6 hours, control 2 spots
  HMGB1 isoform spots on 2D gel (hyperacetylation): several HMGB1 spots appeared
3T3 cells
  hyperacetylation of HMGB1: hyperacetylation could be obtained
3134 mouse fibroblasts
  relocation of HMGB1-GFP to the cytoplasm: causes a significant relocation of HMGB1-GFP to the cytoplasm; also recorded: sufficient to relocate a significant amount of HMGB1 to the cytoplasm
U937.12 cells [2]
  cytoplasmic expansion: do not show cytoplasmic expansion
  relocation of HMGB1 to cytoplasmic vesicles: a fraction of HMGB1 is relocalized to cytoplasmic vesicles; also recorded: a fraction of HMGB1 started to shift to cytoplasmic vesicles

## CCC(=C/[C@H](C)C/C=C/C(C)=C/[C@@H](C)C(=O)[C@@H](C)[C@H](O)[C@@H](C)C/C(C)=C/C(=O)O)/C=C/[C@@H]1OC(=O)C=C[C@@H]1C [leptomycin B]
[3]; listed as Leptomycin B
  HMGB1 transfer between human and mouse nuclei in heterokaryons: substantially reduces, but does not abolish
[3]; listed as leptomycin
  HMGB1 transfer between human and mouse nuclei in heterokaryons: strongly reduced
[3]; vast majority of leptomycin-treated heterokaryons, after 4 hours, 50% level = complete equilibration
  HMGB1 migrated to the mouse nucleus: less than 5%
CRM1 exportin
  binding of labeled CRM1 to GST-NS2 and the HMG boxes (BoxA+B): did not bind
CRM1 exportin; listed as leptomicin B
  binding of labeled CRM1 to GST-NS2 and the HMG boxes (BoxA+B): prevents binding of CRM1
U937.12 cells [1]; 150 nM leptomycin together with LPS, 3 hours
  HMGB1 relocation to vesicles after LPS: partially blocked
U937.12 cells [1]; 150 nM leptomycin together with LPS, 3 hours, listed as leptomycin
  HMGB1 relocation to vesicles after LPS: blocks HMGB1 relocation almost completely

## C[S+]([O-])c1ccc(-c2nc(-c3ccncc3)c(-c3ccc(F)cc3)[nH]2)cc1 (centres unmarked) [SB203580]
U937.12 cells [1]; 10 μM SB203580 together with LPS, 3 hours
  HMGB1 relocation to vesicles after LPS: has no effect; also recorded: substantial

## C[C@@H]1NC(=O)[C@H]2CCCN2C(=O)[C@H](CCCCCC(=O)[C@@H]2CO2)NC(=O)[C@@H](C)NC1=O [HC-toxin]
3T3 cells
  hyperacetylation of HMGB1: hyperacetylation could be obtained
